The target in assay [1] is T1, PSMA-expressing C4-2 cells (Homo sapiens, UniProt Q04609).
T1 construct: PSMA-expressing C4-2 cells (ATCC, Cat. No. CRL-3314) were cultured in RPMI-1640; host or cells: C4-2 cells
Kind of assay: FACS binding assay (competition with 50 nM PSM-0183). Conditions: read-out: pIC50 [C4-2] CAT (converted). A digest of the protocol: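 C4-2 cells were incubated 1 h at 4 °C with 50 nM AF488-labelled peptide PSM-0183 plus increasing test compound concentrations, then washed twice in ice-cold buffer. Median fluorescence in the AF488 channel was read by flow cytometry. IC50/pIC50 was derived by 4PL fitting of MFI versus concentration.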
For orientation: Flow cytometry measures light scatter and fluorescence of single cells or particles in a stream.

The target in assay [2] is T2, Fc-fusion protein of human PSMA (hPSMA-Fc) (Homo sapiens, UniProt Q04609).
T2 construct: purchased Acro Biosystems PSA-H5264
In words: Surface plasmon resonance assay (Biacore T200, single cycle kinetic). The format is binding. The following applies: hPSMA-Fc, 25° C., read-out: pKD CAT (converted). A digest of the protocol: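 hPSMA-Fc was captured (~1000 RU) on an Fc-binding-peptide CM5 chip, and compounds were run in single cycle kinetic mode at 25° C in HBST with 0.1% DMSO. Double-blank-corrected sensorgrams were fitted to a 1:1 Langmuir model to give KD, reported as pKD.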
A general note: In SPR one partner is held on a chip, and binding of the other changes the refractive index at the surface.

The mark [3] stands for this setting: FACS binding, PSMA-expressing C4-2 cells, pIC50 category.
Setting [4] is: pIC50 category of FACS binding, C4-2 cells.
The mark [5] stands for this setting: pKD category for PSMA SPR activity assay.
The mark [6] stands for this setting: FACS binding, C4-2 cells, competition with 50 nM PSM-0183, category.
Where [7] appears, read: SPR, single cycle kinetic, category.

Where two headings read alike, the source gives them in different places. Numbered stars: 1 amine (or outer) side, 2 acyl side, 3 side chain; on linkers, the order of the positions; unused ones are H or OH. Bridge positions count the residues as written; N and C are the ends. Square brackets hold non-standard residues; d marks the D form. Peptide text beside a SMILES is read from it. * marks the point of attachment. X3 = O=C(O)CN1CCN(CC(=O)O)CCN(CC(=O)NCCCOCCOCCOCCCN*)CCN(CC(=O)O)CC1; DOTA = O=C(O)CN1CCN(CC(=O)O)CCN(CC(=O)*)CCN(CC(=O)O)CC1; Phe(4-Cl) = N[C@@H](Cc1ccc(Cl)cc1)C(=O)O; Arg(Me) = CNC(=N)NCCC[C@H](N)C(=O)O; Lys(iPr) = CC(C)NCCCC[C@H](N)C(=O)O; X1 = O=C(CC1CCN([*:1])CC1)[*:2]; Suc = O=C(CCC(=O)[*:2])[*:1]; Tle = CC(C)(C)[C@H](N)C(=O)O; Nle = CCCC[C@H](N)C(=O)O; Deg = CCC(N)(CC)C(=O)O; Aib = CC(C)(N)C(=O)O; Ahx = NCCCCCC(=O)O; βAla = NCCC(=O)O

T2 sequence (Q04609 44-750 limits assumed): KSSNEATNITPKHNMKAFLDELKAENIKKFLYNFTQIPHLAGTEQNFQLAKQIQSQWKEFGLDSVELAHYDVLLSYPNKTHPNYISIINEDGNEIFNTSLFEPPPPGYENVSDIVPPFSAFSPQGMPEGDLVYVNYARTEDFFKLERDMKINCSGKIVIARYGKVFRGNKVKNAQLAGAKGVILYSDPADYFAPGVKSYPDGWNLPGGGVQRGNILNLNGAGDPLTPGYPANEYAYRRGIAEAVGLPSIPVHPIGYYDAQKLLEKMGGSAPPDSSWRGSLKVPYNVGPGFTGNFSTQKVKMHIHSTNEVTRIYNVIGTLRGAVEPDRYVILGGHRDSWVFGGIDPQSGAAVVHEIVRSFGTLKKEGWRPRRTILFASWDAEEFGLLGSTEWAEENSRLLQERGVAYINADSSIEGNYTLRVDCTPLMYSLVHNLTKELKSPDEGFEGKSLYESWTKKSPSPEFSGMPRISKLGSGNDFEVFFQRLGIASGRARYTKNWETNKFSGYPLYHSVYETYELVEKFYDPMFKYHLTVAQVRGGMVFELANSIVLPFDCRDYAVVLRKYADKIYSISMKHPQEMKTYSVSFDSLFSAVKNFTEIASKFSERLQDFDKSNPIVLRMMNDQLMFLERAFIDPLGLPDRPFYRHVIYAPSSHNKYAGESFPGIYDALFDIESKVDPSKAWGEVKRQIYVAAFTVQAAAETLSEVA
T1 sequence (Q04609 whole entry): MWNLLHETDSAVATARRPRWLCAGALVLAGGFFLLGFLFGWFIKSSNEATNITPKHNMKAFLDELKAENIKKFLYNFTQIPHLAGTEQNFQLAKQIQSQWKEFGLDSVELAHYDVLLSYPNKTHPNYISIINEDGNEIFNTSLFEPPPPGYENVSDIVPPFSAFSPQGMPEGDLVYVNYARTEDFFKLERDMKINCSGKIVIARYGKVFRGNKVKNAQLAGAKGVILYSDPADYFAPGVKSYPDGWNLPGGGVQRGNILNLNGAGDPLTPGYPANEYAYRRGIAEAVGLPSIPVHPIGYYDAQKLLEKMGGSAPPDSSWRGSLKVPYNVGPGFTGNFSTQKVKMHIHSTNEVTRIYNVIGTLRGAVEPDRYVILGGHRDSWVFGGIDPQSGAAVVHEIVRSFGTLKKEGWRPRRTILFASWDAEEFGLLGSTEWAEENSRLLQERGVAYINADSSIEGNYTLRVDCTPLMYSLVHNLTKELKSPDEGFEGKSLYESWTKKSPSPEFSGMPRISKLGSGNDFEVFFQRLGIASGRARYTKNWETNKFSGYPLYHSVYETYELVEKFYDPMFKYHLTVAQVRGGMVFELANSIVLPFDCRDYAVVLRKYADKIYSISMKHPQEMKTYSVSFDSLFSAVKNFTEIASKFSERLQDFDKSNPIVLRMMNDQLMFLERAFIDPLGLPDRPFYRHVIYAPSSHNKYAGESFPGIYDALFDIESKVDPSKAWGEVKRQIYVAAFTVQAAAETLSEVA

Consider `C[C@@H](O)[C@H](NC(=O)[C@@H](NC(=O)[C@@H]1CSSC[C@H](NC(=O)[C@H](Cc2ccc(Cl)cc2)NC(=O)C(C)(C)NC(=O)CCCCCNC(=O)CN2CCN(CC(=O)O)CCN(CC(=O)O)CCN(CC(=O)O)CC2)C(=O)N[C@@H](CCCCN)C(=O)N[C@@H](CCCNC(=N)N)C(=O)NC(C)(C)C(=O)N[C@@H](CC(N)=O)C(=O)N1)C(C)(C)C)C(N)=O` [PSM-0310, DOTA-Ahx-Aib-Pcf-[Cys-Lys-Arg-Aib-Asn-Cys]-Tle-Thr-NH2] ({DOTA-Ahx}-[Aib][Phe(4-Cl)]CKR[Aib]NC[Tle]T-NH2; disulfide 3-8), for which, in assay [1] (setting [3]), the IC50 is less than 0.2 µM. For the same compound, the Kd in assay [2] (PSMA SPR assay, pKD category) is less than 0.0126 µM.
For `CCCC[C@H](NC(=O)[C@@H]1CSSC[C@H](NC(=O)[C@H](Cc2ccccc2)NC(=O)[C@H](C)NC(=O)[C@H](CO)NC(C)=O)C(=O)N[C@@H](CCCCN)C(=O)N[C@@H](CCCNC(=N)N)C(=O)N[C@@H](C)C(=O)N[C@@H](CC(N)=O)C(=O)N1)C(=O)N[C@H](C(=O)N[C@@H](CC(=O)O)C(N)=O)[C@@H](C)O` [PSM-0469, Ac-Ser-Ala-Phe-[Cys-Lys-Arg-Ala-Asn-Cys]-Nle-Thr-Asp-NH2] (Ac-SAFCKRANC[Nle]TD-NH2; disulfide 4-9), the IC50 in assay [1] (setting [4]) is less than 0.2 µM. For the same compound, the Kd in assay [2] (setting [5]) is 0.0126 to 0.126 µM.
In the case of `C[C@@H]1NC(=O)[C@H](CCCNC(=N)N)NC(=O)[C@H](CCCCN)NC(=O)[C@@H](NC(=O)[C@H](Cc2ccccc2)NC(=O)[C@H](C)NC(=O)[C@@H](NC(=O)CCC(=O)NCCCOCCOCCOCCCNC(=O)CN2CCN(CC(=O)O)CCN(CC(=O)O)CCN(CC(=O)O)CC2)[C@@H](C)O)CSSC[C@@H](C(=O)N[C@H](C(=O)N[C@H](C(=O)N[C@@H](CC(=O)O)C(N)=O)[C@@H](C)O)C(C)(C)C)NC(=O)[C@H](CC(N)=O)NC1=O` [PSM-0342, DOTA-Ttds-Thr-Ala-Phe-[Cys-Lys-Arg-Ala-Asn-Cys]-Tle-Thr-Asp-NH2] ({X3-Suc}-TAFCKRANC[Tle]TD-NH2; disulfide 4-9), the IC50 in assay [1] (setting [3]) was less than 0.2 µM. The Kd in assay [2] (PSMA SPR assay, pKD category) is 0.0126 to 0.126 µM.
Take `CCC1(CC)NC(=O)[C@H](CCCNC(=N)N)NC(=O)[C@H](CCCCN)NC(=O)[C@@H](NC(=O)[C@H](Cc2ccccc2)NC(=O)C(C)(C)NC(=O)[C@@H](NC(C)=O)[C@@H](C)O)CSSC[C@@H](C(=O)N[C@H](C(=O)N[C@H](C(N)=O)[C@@H](C)O)C(C)(C)C)NC(=O)[C@H](CC(N)=O)NC1=O` [PSM-0375, Ac-Thr-Aib-Phe-[Cys-Lys-Arg-Deg-Asn-Cys]-Tle-Thr-NH2] (Ac-T[Aib]FCKR[Deg]NC[Tle]T-NH2; disulfide 4-9): the IC50 in assay [1] (setting [4]) was less than 0.2 µM. For the same compound, the Kd in assay [2] (setting [5]) is less than 0.0126 µM.
`CNC(=N)NCCC[C@@H]1NC(=O)[C@H](CCCCNC(C)C)NC(=O)[C@@H](NC(=O)[C@H](Cc2ccc(Cl)cc2)NC(=O)C(C)(C)NC(=O)[C@@H](NC(=O)CC2CCN(C(=O)CN3CCN(CC(=O)O)CCN(CC(=O)O)CCN(CC(=O)O)CC3)CC2)[C@@H](C)O)CSSC[C@@H](C(=O)N[C@H](C(=O)N[C@H](C(N)=O)[C@@H](C)O)C(C)(C)C)NC(=O)[C@H](CC(N)=O)NC(=O)C(C)(C)NC1=O` [PSM-0244, DOTA-Cmp-Thr-Aib-Pcf-[Cys-Kip-Arg(Me)-Aib-Asn-Cys]-Tle-Thr-NH2] ({DOTA}-[X1]T[Aib][Phe(4-Cl)]C[Lys(iPr)][Arg(Me)][Aib]NC[Tle]T-NH2; disulfide 5-10): the IC50 in assay [1] (setting [6]) was less than 0.2 µM. Moreover, the Kd in assay [2] (setting [7]) was less than 0.0126 µM.
The corresponding values for `C[C@@H](O)[C@H](NC(=O)[C@@H](NC(=O)[C@@H]1CSSC[C@H](NC(=O)[C@H](Cc2ccccc2)NC(=O)C(C)(C)NC(=O)[C@@H](NC(=O)CCNC(=O)CN2CCN(CC(=O)O)CCN(CC(=O)O)CCN(CC(=O)O)CC2)[C@@H](C)O)C(=O)N[C@@H](CCCCN)C(=O)N[C@@H](CCCNC(=N)N)C(=O)NC(C)(C)C(=O)N[C@@H](CC(N)=O)C(=O)N1)C(C)(C)C)C(N)=O` [PSM-0209, DOTA-Bal-Thr-Aib-Phe-[Cys-Lys-Arg-Aib-Asn-Cys]-Tle-Thr-NH2] ({DOTA-βAla}-T[Aib]FCKR[Aib]NC[Tle]T-NH2; disulfide 4-9) are less than 0.2 µM and less than 0.0126 µM.

(Values after patent US20260083865A1, “PROSTATE SPECIFIC MEMBRANE ANTIGEN (PSMA) LIGANDS AND USE THEREOF” (priority 2022, published 2026).)
